From ChEMBL document CHEMBL1156829 (Proc Natl Acad Sci U S A, 2008)

Columns and labels:
Plasmodium falciparum [1] = experiment: NOVARTIS: Inhibition of Plasmodium falciparum 3D7 (drug-susceptible) proliferation in erythrocyte-based infection assay; format: functional, organism-based; settings: Plasmodium falciparum, 3D7
Plasmodium falciparum [2] = experiment: NOVARTIS: Inhibition of Plasmodium falciparum W2 (drug-resistant) proliferation in erythrocyte-based infection assay; format: functional, organism-based; settings: Plasmodium falciparum, W2; read-out: EC50
[3] = NOVARTIS: Cytotoxicity against human hepatocellular carcinoma cell line (Huh7); format: toxicity, cell-based, Huh-7; settings: Huh7 cells (hepatocellular carcinoma cell line)

Structure (SMILES) | EC50 (Plasmodium falciparum [1]) [nM] | EC50 (Plasmodium falciparum [2]) [nM] | CC50 [3] [nM]
CCCCOc1ccc(C2C3CCCC=C3C(C#N)=C(N)C2(C#N)C#N)cc1 (stereo not given) | 3470 | 1480 | 57700
Oc1ccc(-c2ccc(F)cc2)cc1CNCCN1CCOCC1 | 901 | 681 | > 10000
CC1CCc2c(sc(NC(=O)c3ccccc3F)c2C(=O)NCc2ccccc2)C1 (stereo not given) | > 699 | > 1250 | > 10000
CC(=O)c1ccc2c3c(onc13)-c1ccccc1C2=O | 2250 | 791 | > 100000
C[n+]1ccn(-c2ccc(C(=O)c3ccc(-n4cc[n+](C)c4)cc3)cc2)c1 | 33.5 | 29.4 | > 10000
Cc1c(Cl)cccc1NC(=O)C1C(C(=O)O)C2C=CC1C21CC1 (stereo not given) | 1250 | 1400 | > 10000
O=C(NCc1ccccc1)c1cccc2c(Br)cccc12 | > 1100 | 1470 | > 10000
CC(=O)Nc1nc(C)c(-c2csc(Nc3ccc(C)cc3)n2)s1 | 240 | 166 | 23600
N#Cc1c2c(c(NCc3ccccn3)n3c1nc1ccccc13)CCCC2 | 223 | 522 | > 100000
CCCCCN(C(=O)c1cccc(OC)c1)C(CC)c1nc2ccccc2c(=O)n1-c1ccccc1OC (stereo not given) | 614 | 318 | > 10000
C/C(=C\c1csc(C)n1)[C@@H]1C[C@@H]2O[C@]2(C)CCC[C@H](C)[C@H](O)[C@@H](C)C(=O)C(C)(C)[C@@H](O)CC(=O)O1 [PATUPILONE] | 4.09 | > 1250 | > 6250
FC(F)(F)c1ccc(-c2nc(C34CC5CC(CC(C5)C3)C4)cs2)cc1 | 1570 | 200 | > 10000
C=C[C@H]1CN2CC[C@H]1C[C@@H]2[C@@H](OC(=O)C(C)C)c1ccnc2ccccc12 | 318 | 199 | > 10000
OC(CN1CCN(Cc2ccccc2)CC1)Cn1c2ccc(I)cc2c2cc(I)ccc21 (stereo not given) | 651 | 148 | 20100
C=CCN1C(=O)/C(=C\c2cc(Cl)c(O)c(OC)c2)C(=O)NC1=S | 2110 | > 1480 | > 10000
CCn1c(N=Nc2ccc(OC)cc2)nc2ccccc21 | 97.5 | 115 | 13000
C=CCC1C=C(Cc2ccccc2)CC(CC=C)N1 (stereo not given) | 4310 | 188 | 46000
CCCS(=O)(=O)c1c(S(=O)(=O)CCC)c2ccc(C(C)=O)cn2c1C(=O)c1ccc(C)cc1 | > 12500 | 1830 | > 100000
Cc1ccc(NC(=O)C2CSC(c3cccc(F)c3)N2C(=O)c2ccc(C(C)(C)C)cc2)cc1 (stereo not given) | 449 | 349 | > 100000
CCc1ccc2[nH]c(=O)c(CN(CCCN(CC)CC)C(=S)NCCCN(C)C)cc2c1 | 2040 | 664 | > 100000
O=C(Nc1ccc(-n2cccn2)cc1)C1CCN(Cc2nc3c(s2)CCCC3)CC1 | 1350 | 894 | > 100000
Oc1ccc(-c2ccnc3cc(Cl)ccc23)cc1CNCCCn1ccnc1 | 167 | 403 | > 10000
Cc1ccc(C(=O)N(C)CCCNc2ccnc3cc(Cl)ccc23)cc1 | 141 | 122 | 5370
O=C1c2cccc3c(C4=NN(c5ccccc5)C(c5ccc(Cl)cc5)C4)ccc(c23)C(=O)N1c1ccccc1 (stereo not given) | > 1250 | 407 | > 10000
CC(C)(C)c1ccc(C2CC3=Nc4ccccc4N(C(=O)c4ccccc4Cl)C(c4ccc(F)cc4)C3=C(O)C2)cc1 (stereo not given) | 2630 | 3940 | > 100000

Structure (SMILES) | EC50 (Plasmodium falciparum [1]) [nM] | EC50 (Plasmodium falciparum [2]) [nM] | CC50 [3] [nM]
CN1CCN(CCCNc2ccnc3cc4ccccc4cc23)CC1 | 24.1 | 78.5 | 5930
Cc1ccc(NC(=O)C2C3C=CC4(O3)C2C(=O)N(Cc2cccnc2)C4C(=O)NC2CCCCC2)cc1 (stereo not given) | > 1640 | 682 | > 10000
Nc1cc(C(=O)Nc2cccc(C3=NCCN3)c2)ccc1C(=O)Nc1cccc(C2=NCCN2)c1 | 199 | 110 | > 100000
O=C(O)CC(c1ccc2c(c1)OCO2)N1CCS(=O)(=O)CC1 (stereo not given) | > 1250 | > 196 | > 10000
CCC(C(=O)NCCCCNc1ccnc2cc(Cl)ccc12)c1ccccc1 (stereo not given) | 288 | 168 | 11500
COC(=O)c1c(S(=O)(=O)NCCN(C)C)sc2c1CCN(CC(C)c1ccccc1)C2 (stereo not given) | 1610 | > 1320 | > 10000
Cc1cc(I)ccc1N1C(=O)C2C3c4ccccc4C(CO)(c4ccccc43)C2C1=O (stereo not given) | > 11200 | > 10100 | > 67900
COc1ccc2c(c1)OC(O)(C(F)(F)C(F)(F)F)CC2=O (stereo not given) | 442 | 1000 | 49700
Oc1ccccc1Nc1nc(NC2CCCC2)c2ccccc2n1 | 530 | 877 | 16700
O=c1cc(NC2CCN(CCCc3ccccc3)CC2)c2cc(Cl)ccc2o1 | 408 | 863 | 20500
CCN(CC)CCCC(C)Nc1ccnc2cc(Cl)ccc12 (stereo not given) [CHLOROQUINE] | 2.43 | 83.7 | 12400
O=c1c2ccccc2[nH]c2ccc(I)cc12 | 393 | 418 | > 100000
O=C(NC1CCN(CC(O)CN(Cc2ccccc2)S(=O)(=O)c2ccccc2)C1)C1CCCCC1 (stereo not given) | 185 | 116 | > 10000
CCSc1nc2sc3c(c2c(=O)n1-c1ccccc1)CCN(Cc1ccccc1)C3 | 85.8 | 34.8 | > 68400
Cc1nc2ccc(Br)cc2c(O)c1CC(C)C | 2730 | 2530 | > 100000
CCC(/C=C1\Sc2ccc3ccccc3c2N1C)=C\c1sc2ccc3ccccc3c2[n+]1C | 2610 | 6370 | > 100000
O=C(Nc1ccc(Oc2cccnc2)cc1)C1CCN(Cc2cc3ccccc3o2)CC1 | 367 | 1510 | > 100000
COc1ccc(C(=NO)C2CC2c2ccc(Cl)cc2)cc1 (stereo not given) | 735 | 668 | > 10000
CCOc1ccc(Nc2cc(=O)oc3ccccc23)cc1 | 610 | 91.9 | > 100000
Clc1ccc(NCn2nnc3ccccc32)nc1 | > 8200 | 1690 | > 100000
CCN1/C(=C/c2sc3ccc(OC)cc3[n+]2CC)C=Cc2cc(OC)ccc21 | 527 | 552 | > 10000
Cc1cccc(C)c1OCC(=O)Nc1ccccc1O | 742 | 1360 | > 100000
CCC1=NN2C(=N)/C(=C/c3ccc(OCCOc4ccc(Br)cc4)c(OC)c3)C(=O)N=C2S1 | > 1250 | > 675 | > 10000
COc1ccccc1N1CCN(C(=O)CCCCSc2nnc3c4cc(F)ccc4n(Cc4ccc(F)cc4)c3n2)CC1 | 265 | 207 | > 57700
O=C1N(Cc2cc3ccccc3s2)CC2CN(Cc3ccoc3)CCN12 (stereo not given) | 1080 | 619 | > 10000
